According to US4241053A, “Novel nitrosourea compounds and process for preparing the same” (Tanabe Seiyaku Co., Ltd., priority 1978, dated 1980):

Experiments:
lymphoid leukemia L-1210 = details: tumor cells implanted intraperitoneally; cited from earlier work
leukemic cells = details: cited from earlier work
[1] = Preventive effect against the growth of Ehrlich ascites tumor (Method A); format: in vivo, mice (female ICR); details: mouse, in vivo, ip; maximum dose with 100% inhibition of Ehrlich ascites tumor without causing death; unit from dose column; read-out: MTD (Maximum Tolerated Dose)
Method: (§1) (A) Preventive effect against the growth of Ehrlich ascites tumor:
(§2) 10^6 tumor cells of Ehrlich ascites carcinoma were inoculated intraperitoneally into a group of five femal mice (ICR mice, body weight: 19-23 g). A test compound was dissolved in a physiological saline solution [In the case where CCNU was employed as the test compound, said compound was suspended in a physiological saline solution containing 0.1% NIKKOL HCO-60 (trademark; a surface active agent manufactured by Nikko Chemicals Co. Ltd.)] and administered intraperioneally to the mice. The administration of the test compound was begun 24 hours after the inoculation of the tumor cells and performed once a day for 5 days. The volume of ascites in the treated mice were measured after 7 days of the experiment.
(§3) ^a T = the average volume of ascites in the treated mice
(§4) C = the average volume of ascites in the untreated mice (control group of
(§5) 100% inhibition for the growth of Ehrlich ascites tumor in mice without
(§6) causing the death of said mice)
(§7) 100% inhibition for the growth of said ascites tumor)
(§8) ^e Therapeutic index = MTD/MED
(§9) *the number of mice died/the number of mice used

[2] = tested on: Ehrlich ascites carcinoma; assay: as above; format: in vivo, mice (female ICR); details: for inhibition in vivo at 0.09 mg/kg: 0.09 mg/kg/day i.p.; for inhibition in vivo at 0.19 mg/kg: 0.19 mg/kg/day i.p.; for inhibition in vivo at 0.39 mg/kg: 0.39 mg/kg/day i.p.; for inhibition in vivo at 0.78 mg/kg: 0.78 mg/kg/day i.p.; for inhibition in vivo at 3.12 mg/kg: 3.12 mg/kg/day i.p.; for therapeutic index (M.T.D./M.E.D.) relative to that of GANU: Ehrlich ascites tumor, greater than that of GANU; for inhibition in vivo at 12.5 mg/kg: 12.5 mg/kg/day i.p.; for inhibition in vivo at 50 mg/kg: 50 mg/kg/day i.p.; for minimal effective dose: minimum dose with 100% inhibition of ascites tumor, unit from dose column, read-out: MED (Minimum Effective Dose); for inhibition in vivo at 1.56 mg/kg: 1.56 mg/kg/day i.p.; for inhibition in vivo at 6.25 mg/kg: 6.25 mg/kg/day i.p.
Method: as §1, §2, §3, §4, §5, §6, §7, §8, §9

Leukemia L-1210 = assay: Effect on the life span of mice implanted with leukemic cells of L-1210 (Method B); format: in vivo, mice (male BDF1); details: for ILS at 6.25 mg/kg / responders at 6.25 mg/kg: 6.25 mg/kg/day i.p.; for ILS at 12.5 mg/kg / responders at 12.5 mg/kg: 12.5 mg/kg/day i.p.; for ILS at 25 mg/kg / responders at 25 mg/kg: 25 mg/kg/day i.p.; for ILS at 50 mg/kg / responders at 50 mg/kg: 50 mg/kg/day i.p.; for responders at 6.25 mg/kg / responders at 12.5 mg/kg / responders at 25 mg/kg / responders at 50 mg/kg: read-out: 60-day survivors (mice survived for 60 days/mice used) (converted); for ILS at 1.56 mg/kg / responders at 1.56 mg/kg: 1.56 mg/kg/day i.p.
Method: (B) Effect on the life span of mice implanted with leukemic cells of L-1210:
10^5 leukemic cells of L-1210 were inoculated intraperitoneally into a group of four or six male mice (BDF1 mice, body weight: 19-23 g). A test compound was dissolved in a physiological saline solution and administered intraperitoneally to the mice. The administration of the test compound was begun 24 hours after the inoculation of the leukemic cells and performed once a day for 5 days. The survival days of the treated mice were observed.
^a T = the mean survival days of the treated mice
C = the mean survival days of the untreated mice (control group of mice)
^b ILS(Increase in Life Span) =-
^c 60day survivors = the number of mice survived for 60 days/the

[3] = Mus musculus, Ehrlich, ip, 168 h, once a day for 5 days, read-out: Inhibition ratio
[4] = Mus musculus, L1210, ip, 120 h, once a day for 5 days, read-out: ILS (Increase in Life Span)
[5] = Mus musculus, L1210, ip, 1440 h, once a day for 5 days
[6] = 100 mg/kg/day i.p., once a day for 5 days
[7] = Mus musculus, Ehrlich, ip, 168 h
[8] = Mus musculus, L1210, ip, 1440 h, once a day for 5 days, read-out: 60-day survivors (mice survived for 60 days/mice used)
[9] = 200 mg/kg/day i.p., once a day for 5 days
[10] = Mus musculus, Ehrlich, ip, 168 h, 25 mg/kg/day i.p., once a day for 5 days, read-out: Inhibition ratio
[11] = Mus musculus, Ehrlich, ip, 168 h, 100 mg/kg/day i.p., once a day for 5 days, read-out: Inhibition ratio

Compound	MTD at 168 h [1] [mg/kg/day]	inhibition in vivo at 0.09 mg/kg [2, 3] [%]	inhibition in vivo at 0.19 mg/kg [2, 3] [%]	inhibition in vivo at 0.39 mg/kg [2, 3] [%]	inhibition in vivo at 0.78 mg/kg [2, 3] [%]	inhibition in vivo at 3.12 mg/kg [2, 3] [%]	ILS at 6.25 mg/kg (Leukemia L-1210; [4]) [%]	ILS at 12.5 mg/kg (Leukemia L-1210; [4]) [%]	ILS at 25 mg/kg (Leukemia L-1210; [4]) [%]	ILS at 50 mg/kg (Leukemia L-1210; [4]) [%]	responders at 12.5 mg/kg (Leukemia L-1210; [5]) [%]	responders at 25 mg/kg (Leukemia L-1210; [5]) [%]	responders at 50 mg/kg (Leukemia L-1210; [5]) [%]	Toxic (number of mice died/number of mice used) [2, 6]	Therapeutic index (MTD/MED) [2]	inhibition in vivo at 12.5 mg/kg [2, 3] [%]	inhibition in vivo at 50 mg/kg [2, 3] [%]	minimal effective dose [2, 7] [mg/kg/day]	further results
O=NN(CCCl)C(=O)NC1O[C@H](CO)[C@@H](O)[C@H](O)[C@@H]1O (stereo partly drawn) [1-(2-chloroethyl)-1-nitroso-3-(D-mannopyranosyl)urea]																			life span of mice implanted with L-1210 (lymphoid leukemia L-1210): increase the life span
O=NN(CCCl)C(=O)NC1O[C@H](CO)[C@@H](O[C@@H]2O[C@H](CO)[C@H](O)[C@H](O)[C@H]2O)[C@H](O)[C@H]1O (stereo partly drawn) [1-(2-chloroethyl)-1-nitroso-3-(D-lactosyl)urea]																			anti-tumor activity against leukemic cells (leukemic cells): show anti-tumor activity
O=NN(CCCl)C(=O)N[C@@H]1O[C@H](CO)[C@@H](O)[C@H](O)[C@H]1O [GANU, 1-(2-chloroethyl)-1-nitroso-3-(D-glucopyranosyl)urea, reference compound]	12.5	4.2	79.2	100	100	100													Toxic (number of mice died/number of mice used) ([2]; 25 mg/kg/day i.p., once a day for 5 days): 5/5; inhibition in vivo at 1.25 mg/kg ([2]; Mus musculus, Ehrlich, ip, 168 h, 1.25 mg/kg/day i.p., once a day for 5 days, read-out: Inhibition ratio): 100%; life span of mice implanted with L-1210 (lymphoid leukemia L-1210): increase the life span
COCCCN(C(=O)N(CCCl)N=O)C1OC[C@H](O)[C@H](O)[C@H]1O (stereo partly drawn) [Compound 4, 1-(2-chloroethyl)-1-nitroso-3-(3-methoxy-n-propyl)-3-(L-arabinopyranosyl)urea]	50	18.4	44.9	100	100	100	97.2	> 324	> 733	> 733	33.3	100	100	2/5	128	100	100	0.39	responders at 6.25 mg/kg (Leukemia L-1210; [5]): 0%; therapeutic index (M.T.D./M.E.D.) relative to that of GANU [2]: 4 times
COCC(C)N(C(=O)N(CCCl)N=O)C1OC[C@H](O)[C@H](O)[C@H]1O (stereo partly drawn) [Compound 6, 1-(2-chloroethyl)-1-nitroso-3-(1-methyl-2-methoxy-ethyl)-3-(L-arabinopyranosyl)urea]	50	15.8	63.2	92.1	100	100	> 270	> 722	> 722		100	100		5/5	64	100	100	0.78	ILS at 1.56 mg/kg (Leukemia L-1210; [4]): 57.5%; responders at 1.56 mg/kg (Leukemia L-1210; [8]): 0%; increase in the average life span (Leukemia L-1210; daily dose 0.45 mg/kg i.p., five consecutive days): about 30%
COCCCN(C(=O)N(CCCl)N=O)C1O[C@H](CO)[C@@H](O)[C@H](O)[C@H]1O (stereo partly drawn) [Compound 12, 1-(2-chloroethyl)-1-nitroso-3-(3-methoxy-n-propyl)-3-(D-glucopyranosyl)urea]	100			10	34	100			> 304	> 757	0	25	100		32			3.12	Toxic (number of mice died/number of mice used) [2, 9]: 5/5; inhibition in vivo at 1.56 mg/kg [2, 3]: 90%; inhibition in vivo at 6.25 mg/kg [2, 3]: 100%; inhibition in vivo at 25 mg/kg [2, 10]: 100%; inhibition in vivo at 100 mg/kg [2, 11]: 100%
O=NN(CCCl)C(=O)NC1O[C@H](CO)[C@@H](O[C@H]2O[C@H](CO)[C@@H](O)[C@H](O)[C@H]2O)[C@H](O)[C@H]1O (stereo partly drawn) [1-(2-chloroethyl)-1-nitroso-3-(D-maltosyl)urea]																			anti-tumor activity against leukemic cells (leukemic cells): show anti-tumor activity
COCCCN(C(=O)N(CCCl)N=O)C1OC[C@@H](O)[C@@H](O)[C@@H]1O (stereo partly drawn) [Compound 7, 1-(2-chloroethyl)-1-nitroso-3-(3-methoxy-n-propyl)-3-(D-arabinopyranosyl)urea]	100		23.2	73.2	100			> 215	> 641	> 641	25	100	100		128			0.78	ILS at 3.12 mg/kg (Leukemia L-1210; Mus musculus, L1210, ip, 120 h, 3.12 mg/kg/day i.p., once a day for 5 days, read-out: ILS (Increase in Life Span)): 66.7%; responders at 3.12 mg/kg (Leukemia L-1210; Mus musculus, L1210, ip, 1440 h, 3.12 mg/kg/day i.p., once a day for 5 days, read-out: 60-day survivors (mice survived for 60 days/mice used)): 0%; Toxic (number of mice died/number of mice used) [2, 9]: 5/5; therapeutic index (M.T.D./M.E.D.) relative to that of GANU [2]: 4 times; inhibition in vivo at 1.56 mg/kg [2, 3]: 100%; inhibition in vivo at 6.25 mg/kg [2, 3]: 100%; inhibition in vivo at 25 mg/kg [2, 10]: 100%; inhibition in vivo at 100 mg/kg [2, 11]: 100%
COCCN(C(=O)N(CCCl)N=O)C1O[C@H](CO)[C@@H](O)[C@H]1O (stereo partly drawn) [Compound 9, 1-(2-chloroethyl)-1-nitroso-3-(2-methoxyethyl)-3-(D-ribofuranosyl)urea]	50		20	62	100	100	> 243	> 414	> 757	> 757	50	100	100	3/5	64	100	100	0.78	ILS at 1.56 mg/kg (Leukemia L-1210; [4]): 40%; responders at 1.56 mg/kg (Leukemia L-1210; [8]): 0%; responders at 6.25 mg/kg (Leukemia L-1210; [5]): 25%
